A word on the pIC50: it is −log10 of the IC50, conventionally taken in molar units.

pIC50: −log10 of the molar value. Where a name gives a salt, the structure may show the parent alone. Some results are limits rather than exact numbers.

The target in the assay is T1, HIV integrase (Human immunodeficiency virus type 1 group M subtype B, UniProt P12497, F1332H).
T1 construct: HIV integrase full length gene; made in house; host or cells: Escherichia coli BL21(DE3), plasmid pET21a-INH
As to the kind of experiment: Determination of enzyme (HIV integrase) inhibitory activity. In kind it is biochemical. To be noted: recombinant HIV integrase (F185H), strand transfer ELISA, absorbance at 450 nm. A digest of the protocol: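 Full-length integrase with F185H, expressed in E. coli and purified, was reacted for 60 min at 37 °C with compound and biotinylated donor DNA bound to streptavidin plates. Target DNA was added for 10 min, then anti-digoxigenin-peroxidase detection at A450; IC50 from % inhibition versus enzyme-free blank.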

For `COC(=O)c1cn2c(c(O)c1=O)C(=O)N(Cc1cccc(Cl)c1)CC2` [Example 261, methyl 2-(3-chlorobenzyl)-9-hydroxy-1,8-dioxo-1,3,4,8-tetrahydro-2H-pyrido[1,2-a]pyrazine-7-carboxylate], the pIC50 is 7.00 to 8.00.

Regarding `CN(C)C(=O)Nc1cn2ccn(Cc3cccc(Cl)c3)c(=O)c2c(O)c1=O` [Example 262, 3-[2-(3-chlorobenzyl)-9-hydroxy-1,8-dioxo-1,8-dihydro-2H-pyrido[1,2-a]pyrazin-7-yl]-1,1-dimethylurea], the pIC50 was greater than 8.00. To `COC(=O)Nc1cn2ccn(Cc3cccc(Cl)c3)c(=O)c2c(O)c1=O` [Example 263, methyl[2-(3-chlorobenzyl)-9-hydroxy-1,8-dioxo-1,8-dihydro-2H-pyrido[1,2-a]pyrazin-7-yl]carbamate] belongs greater than 8.00.

For the molecule `O=C1c2c(O)c(=O)c(-c3nccs3)cn2CCN1CCCc1c(F)cccc1Cl` [Example 264, 2-[3-(2-chloro-6-fluorophenyl)propyl]-9-hydroxy-7-(thiazol-2-yl)-3,4-dihydro-2H-pyrido[1,2-a]pyrazine-1,8-dione], the pIC50 is greater than 8.00.

On to `CC(=O)C(=O)Nc1cn2ccn(Cc3cccc(Cl)c3)c(=O)c2c(O)c1=O` [Example 265, N-[2-(3-chlorobenzyl)-9-hydroxy-1,8-dioxo-1,8-dihydro-2H-pyrido[1,2-a]pyrazin-7-yl]-2-oxopropionamide], for which the pIC50 was greater than 8.00.

For `O=C(NCc1ccccc1)c1cn2c(c(O)c1=O)C(=O)N(Cc1cccc(Cl)c1)CC2` [Example 266, N-benzyl-2-(3-chlorobenzyl)-9-hydroxy-1,8-dioxo-1,3,4,8-tetrahydro-2H-pyrido[1,2-a]pyrazine-7-carboxamide], the pIC50 was greater than 8.00.

Turning to `O=C1c2c(O)c(=O)c(-c3cc[nH]n3)cn2CCN1Cc1cccc(Cl)c1` [Example 267, 2-(3-chlorobenzyl)-9-hydroxy-7-(1H-pyrazol-3-yl)-3,4-dihydro-2H-pyrido[1,2-a]pyrazine-1,8-dione], the negative-log IC50 (pIC50) is 7.00 to 8.00. Consider `O=C1c2c(O)c(=O)c(-c3ccncn3)cn2CCN1Cc1cccc(Cl)c1` [Example 268, 2-(3-chlorobenzyl)-9-hydroxy-7-(pyrimidin-4-yl)-3,4-dihydro-2H-pyrido[1,2-a]pyrazine-1,8-dione], for which the pIC50 was greater than 8.00. In the case of `O=C(NCc1cccc2ccccc12)c1cn2c(c(O)c1=O)C(=O)N(Cc1cccc(Cl)c1)CC2` [Example 269, N-(naphthalen-1-ylmethyl)-2-(3-chlorobenzyl)-9-hydroxy-1,8-dioxo-1,3,4,8-tetrahydro-2H-pyrido [1,2-a]pyrazine-7-carboxamide], the pIC50 is greater than 8.00. Regarding `O=C(NC(c1ccccc1)c1ccccc1)c1cn2c(c(O)c1=O)C(=O)N(Cc1cccc(Cl)c1)CC2` [Example 270, N-benzhydryl-2-(3-chlorobenzyl)-9-hydroxy-1,8-dioxo-1,3,4,8-tetrahydro-2H-pyrido[1,2-a]pyrazine-7-carboxamide], the pIC50 was 7.00 to 8.00. Take `O=C1c2c(O)c(=O)c(-c3ncccn3)cn2CCN1Cc1cccc(Cl)c1` [Example 271, 2-(3-chlorobenzyl)-9-hydroxy-7-(pyrimidin-2-yl)-3,4-dihydro-2H-pyrido[1,2-a]pyrazine-1,8-dione hydrochloride]: the negative-log IC50 (pIC50) is 7.00 to 8.00.

For the molecule `CC(C)(C(=O)c1cn2c(c(O)c1=O)C(=O)N(Cc1cccc(Cl)c1)CC2)c1ccccc1` [Example 272, 2-(3-chlorobenzyl)-9-hydroxy-7-(2-methyl-2-phenylpropionyl)-3,4-dihydro-2H-pyrido[1,2-a]pyrazine-1,8-dione], the pIC50 is 7.00 to 8.00.

`CC(C)(C)c1ccc(CNC(=O)c2cn3c(c(O)c2=O)C(=O)N(Cc2cccc(Cl)c2)CC3)cc1` [Example 273, N-(4-tert-butylbenzyl)-2-(3-chlorobenzyl)-9-hydroxy-1,8-dioxo-1,3,4,8-tetrahydro-2H-pyrido [1,2-a] pyrazine-7-carboxamide]: the negative-log IC50 (pIC50) is 7.00 to 8.00.

Values taken from patent publication US7211572B2 (Japan Tobacco Inc., priority 2003, dated 2007).
